Consider 13 molecules from ChEMBL document CHEMBL1201862, “PubChem BioAssay data set” (2004).

Some test systems named below: SNB-78; RXF 631; DLD-1; KM-20L2; DMS-114; M19-MEL; DMS-273; LXFL 529; HOP-18.
Test in all cases: NCI tumour cell line growth inhibition, 48 h

Molecules are shown by their SMILES.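 The compound was tested at five concentrations on cells cultured in 96-well plates, with a 48-hour exposure period. GI50: concentration for 50% inhibition of growth.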 Calls of active or inactive are those of the source. Cut-off read from the data, not from the text of the source: active = GI50 up to about 1.1 µM and inactive = higher.

Turning to `CC1=C(Oc2ccccc2)C(CCC(=O)O)c2c(O)cc(Cl)c(O)c21` (stereo unspecified), the GI50 in the assay on SNB-78, with RXF 631, in the assay on DLD-1, in the assay with KM-20L2, with DMS-114 and in the assay with M19-MEL was > 100 µM (inactive) each time. Moreover, in the assay with DMS-273, the GI50 is > 100 µM (inactive).

For `CCCc1onc(CCC(=O)N(Cc2ccccc2)Cc2ccccc2)c1CC`, the GI50 in the assay with SNB-78, in the assay on RXF 631, in the assay on DLD-1, with KM-20L2, with LXFL 529 and with DMS-114 was > 100 µM (inactive) throughout. The GI50 in the assay on M19-MEL and with DMS-273 was > 100 µM (inactive) each time.

In the case of `C=C1CCCC(C)(C)[C@@H]1CC/C(C)=C/Cn1c2cccc(=O)c-2nc2ccccc21`, the GI50 is 1.26 µM (inactive) with DLD-1; 7.1 µM (inactive) in the assay with HOP-18; 1.09 µM (active) in the assay on DMS-114; 1.26 µM (inactive) with M19-MEL; 1.48 µM (inactive) in the assay on DMS-273.

Regarding `Nc1ncnc2c1ncn2COC/C=C/I`, the GI50 with SNB-78 was > 100 µM (inactive); with RXF 631, > 100 µM (inactive); with DLD-1, > 100 µM (inactive); in the assay on LXFL 529, > 100 µM (inactive); with HOP-18, 14 µM (inactive); in the assay on DMS-114, > 100 µM (inactive). The GI50 in the assay on M19-MEL and in the assay on DMS-273 was > 100 µM (inactive) throughout.

`Cc1cc(C)nc(NS(=O)(=O)c2ccc(Nc3c4ccccc4nc4c(C(=O)N5CCN(CCOS(C)(=O)=O)CC5)ccc(Cl)c34)cc2)n1`: the GI50 in the assay on SNB-78, with RXF 631, in the assay with DLD-1, in the assay with KM-20L2, in the assay on DMS-114 and in the assay on M19-MEL was > 100 µM (inactive) in each case. The GI50 in the assay on DMS-273 is > 100 µM (inactive).

For the molecule `CCN(CC)CCSc1nc2cccc([N+](=O)[O-])c2[nH]1`, the GI50 in the assay with SNB-78, with RXF 631, in the assay on LXFL 529, in the assay with DMS-114, in the assay on M19-MEL and in the assay on DMS-273 was > 100 µM (inactive) each time.

For the molecule `Cn1c(=O)nc2n(-c3ccc(F)cc3)c3ccccc3nc-2c1=O`, the GI50 in the assay on SNB-78 is 20 µM (inactive); in the assay with DLD-1 it was 19.5 µM (inactive); in the assay with KM-20L2, 19.8 µM (inactive); in the assay on LXFL 529, 22.8 µM (inactive); in the assay on HOP-18 it was 19.4 µM (inactive); with DMS-114, 12.8 µM (inactive). In addition, the GI50 is 2.89 µM (inactive) with M19-MEL and 17 µM (inactive) in the assay with DMS-273.

`Cc1cc(N(CCC#N)CCC#N)ccc1/C=C(\NC(=O)/C=C/c1ccccc1)NC(=O)Nc1ccccc1C`: the GI50 in the assay on SNB-78 was 51.5 µM (inactive); with RXF 631, 84.1 µM (inactive); with DLD-1, 78.3 µM (inactive); in the assay on KM-20L2, > 100 µM (inactive); in the assay with LXFL 529, 47.6 µM (inactive); in the assay with DMS-114 it was 89.7 µM (inactive). The GI50 with M19-MEL and in the assay with DMS-273 was > 100 µM (inactive) each time.

Turning to `O=C1C(Cl)N(c2c(Cl)cccc2Cl)C1c1c[nH]c2ccccc12` (stereo unspecified), the GI50 in the assay with DLD-1, with KM-20L2, in the assay with LXFL 529 and in the assay on M19-MEL was > 100 µM (inactive) throughout.

For the molecule `O=C(O)CCC(=O)N1c2ccccc2CC1c1c[nH]c2ccccc12` (stereo unspecified), the GI50 in the assay on SNB-78, with KM-20L2, with LXFL 529, in the assay on HOP-18, in the assay on DMS-114 and in the assay on M19-MEL was > 100 µM (inactive) throughout. In addition, the GI50 in the assay with DMS-273 is > 100 µM (inactive).

Turning to `COc1cc(CCc2ccc(OCCN(C)C)cc2)cc(OC)c1OC`, the GI50 is > 100 µM (inactive) in the assay with SNB-78; 88.7 µM (inactive) with RXF 631; > 100 µM (inactive) in the assay with DLD-1; 76.9 µM (inactive) in the assay on KM-20L2; 77.6 µM (inactive) with LXFL 529; > 100 µM (inactive) with HOP-18. The GI50 was 47.8 µM (inactive) in the assay with DMS-114, > 100 µM (inactive) in the assay on M19-MEL and > 100 µM (inactive) in the assay on DMS-273.

For `CCCCCCCCCCCC1CCCC(C)N1` (stereo unspecified), the GI50 in the assay on SNB-78 was 73.3 µM (inactive); in the assay with DLD-1, 24.5 µM (inactive); with KM-20L2, 29 µM (inactive); in the assay on HOP-18, 87.9 µM (inactive); in the assay with DMS-114, 56.2 µM (inactive); in the assay on M19-MEL it was 56.2 µM (inactive). The GI50 in the assay on DMS-273 was 65.2 µM (inactive).

Consider `COC(=O)c1cc(CNCCc2c[nH]c3ccccc23)on1`, for which the GI50 with RXF 631, with DLD-1, in the assay with KM-20L2, with LXFL 529, with DMS-114 and with M19-MEL was > 100 µM (inactive) in each case. In the assay on DMS-273, the GI50 was > 100 µM (inactive).
